# Assay results from ChEMBL document CHEMBL1201862, “PubChem BioAssay data set” (2004).
# Active and inactive are the calls of the source.
# What was measured:
# [1] = growth suppression of beta-catenin-knockout colon cells, dose response, cell-based, HCT116, human colon tumor (AID 1045); type: functional;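 further: HCT116 colon tumor cells with beta catenin knocked out; cells exposed to compound for 60 hours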
# [2] = biological target: Neurotensin receptor type 1 (Homo sapiens, UniProt P30989); type: functional;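 further: Image-based confirmatory dose-response assay measuring agonist activity at NTR1; NTR1-expressing U2OS osteosarcoma cells imaged for beta-arrestin GFP spot formation; agonist potency where compounds increase beta-arrestin recruitment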
# [3] = growth suppression of PTEN-null colon cells, dose response, cell-based, HCT116 PTEN knockout (AID 1047); type: functional;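 further: HCT116 colon tumor cells with PTEN knocked out; cells exposed to compound for 60 hours before readout; potency for loss of cell viability measured by luminescence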
# [4] = biological target: Glyceraldehyde-3-phosphate dehydrogenase (Homo sapiens, UniProt P04406)
# [5] = biological target: T1, Alkaline phosphatase, tissue-nonspecific isozyme (Homo sapiens, UniProt P05186); experiment: human TNAP enzyme inhibitors, SAR follow-up, biochemical, luminescent, dose response (AID 1056)
# T1 sequence (P05186 whole entry): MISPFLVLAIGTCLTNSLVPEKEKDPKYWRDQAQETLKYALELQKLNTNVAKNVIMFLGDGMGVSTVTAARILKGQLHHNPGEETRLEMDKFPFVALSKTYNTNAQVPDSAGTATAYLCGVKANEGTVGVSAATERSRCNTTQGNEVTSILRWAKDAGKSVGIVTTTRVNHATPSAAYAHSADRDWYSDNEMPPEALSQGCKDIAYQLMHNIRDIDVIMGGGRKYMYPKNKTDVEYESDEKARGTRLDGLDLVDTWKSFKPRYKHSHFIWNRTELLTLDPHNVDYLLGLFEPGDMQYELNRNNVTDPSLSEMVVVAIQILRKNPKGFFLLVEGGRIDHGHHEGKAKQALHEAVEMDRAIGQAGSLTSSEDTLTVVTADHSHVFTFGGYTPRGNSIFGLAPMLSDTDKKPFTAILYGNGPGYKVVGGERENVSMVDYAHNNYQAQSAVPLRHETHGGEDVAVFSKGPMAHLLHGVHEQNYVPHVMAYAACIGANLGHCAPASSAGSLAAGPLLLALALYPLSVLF
# [6] = biological target: G-protein coupled receptor 55 (Homo sapiens, UniProt Q9Y2T6); experiment: GPR55 agonists via beta-arrestin recruitment, primary screen, imaging, U2OS cells, beta-arrestin-GFP redistribution (AID 1961); type: functional
# [7] = biological target: Induced myeloid leukemia cell differentiation protein Mcl-1 (Homo sapiens, UniProt Q07820); type: functional
# cells = type: functional
# [8] = cytotoxicity in KRAS-transformed pancreatic duct cells, primary screen, cell-based, fluorescence, HTS (AID 431); type: functional; conditions: Homo sapiens;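 further: cell line used: HPDE-C7K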
# BJ [9] = experiment: cells; type: functional, cell-based; conditions: Homo sapiens
# [10] = Vero E6 cell cytotoxicity, dose response, cytotoxicity control for non-replicating M. tuberculosis project, secondary assay (AID 492998); type: functional, VeroE6; conditions: Vero C1008
# [11] = THP-1 cell cytotoxicity, dose response, cytotoxicity control for non-replicating M. tuberculosis project (AID 489025); type: functional
# BJ [12] = experiment: cytotoxicity toward BJ-TERT-LT-ST fibroblasts, dose response, cell-based, RAS-independent, luminescence (AID 1935); type: functional; conditions: Homo sapiens;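 further: BJ fibroblasts immortalized with TERT plus LT and ST oncogenes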
# [13] = cytotoxicity in HPDE-C7 cells, cell-based, fluorescence, HTS (AID 430); type: functional; conditions: Homo sapiens
# BJ [14] = experiment: cytotoxicity toward BJ-TERT fibroblasts, dose response, cell-based, RAS-independent, luminescence (AID 1933); type: functional; conditions: Homo sapiens
# [15] = cytotoxicity toward DRD oncogenic fibroblasts, dose response, cell-based, non-viral oncogenic, luminescence (AID 1934); type: functional; conditions: Homo sapiens
# [16] = biological target: T2, Ubiquitin-conjugating enzyme E2 N (Homo sapiens, UniProt P61088); type: functional
# T2 sequence (P61088 whole entry): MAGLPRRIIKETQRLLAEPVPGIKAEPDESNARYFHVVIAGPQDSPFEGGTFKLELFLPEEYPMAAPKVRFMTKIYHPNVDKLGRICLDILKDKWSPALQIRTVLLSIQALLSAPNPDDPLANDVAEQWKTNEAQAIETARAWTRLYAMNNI
# [17] = biological target: T2, Ubiquitin-conjugating enzyme E2 N; type: functional; remark: listed apart in the source
# Bcl-2-related protein A1 = biological target: T3, Bcl-2-related protein A1 (Mus musculus, UniProt Q07440); type: functional;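 further: confirmatory dose–response counterscreen on Bfl-1, used to check hits from a UBC13 polyubiquitin inhibitor campaign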
# T3 sequence (Q07440 whole entry): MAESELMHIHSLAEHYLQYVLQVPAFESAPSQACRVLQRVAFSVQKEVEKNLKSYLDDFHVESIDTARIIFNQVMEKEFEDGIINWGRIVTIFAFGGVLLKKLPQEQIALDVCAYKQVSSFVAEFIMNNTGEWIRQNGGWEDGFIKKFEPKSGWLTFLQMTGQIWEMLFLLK
# Prothrombin = Prothrombin (Homo sapiens, UniProt P00734); experiment: Thrombin 1536 HTS Dose Response Confirmation. [Related pubchem assays: 1046 (Thrombin 1536 HTS; hits were confirmed in this assay)]; type: functional
# Bcl-2-like protein 10 = biological target: T4, Bcl-2-like protein 10 (Homo sapiens, UniProt Q9HD36); experiment: displacers of TR3 peptide from Bcl-B, primary screen, selectivity assay for Bfl-1 inhibitor project, biochemical, fluorescence polarization, FITC-TR3 peptide (AID 748);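 further: fluorescence polarization from a fluorescein-labelled TR3 peptide binding purified Bcl-B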
# T4 sequence (Q9HD36 whole entry): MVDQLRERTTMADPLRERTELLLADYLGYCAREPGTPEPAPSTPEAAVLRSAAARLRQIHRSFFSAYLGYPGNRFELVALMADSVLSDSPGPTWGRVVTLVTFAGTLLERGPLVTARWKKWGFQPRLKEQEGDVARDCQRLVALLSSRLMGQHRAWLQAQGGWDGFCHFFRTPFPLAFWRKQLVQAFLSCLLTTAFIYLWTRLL
# [18] = HepG2 cell cytotoxicity, dose response, cytotoxicity control for non-replicating M. tuberculosis project (AID 489018); type: functional; conditions: Mycobacterium tuberculosis
# [19] = biological target: T5, Voltage-gated N-type calcium channel alpha-1B subunit/Amyloid beta A4 precursor protein-binding family A member 1 (Homo sapiens, UniProt Q00975+Q02410); type: protein assay
# [20] = biological target: T5, Voltage-gated N-type calcium channel alpha-1B subunit/Amyloid beta A4 precursor protein-binding family A member 1; type: protein assay; remark: listed apart in the source
# [21] = biological target: T6, Replicative DNA helicase DnaB (Mycobacterium tuberculosis, UniProt P9WMR3); experiment: DnaB intein splicing inhibitors, dose response, biochemical, cell-free fluorescence (AID 449749); type: functional
# T6 sequence (P9WMR3 whole entry): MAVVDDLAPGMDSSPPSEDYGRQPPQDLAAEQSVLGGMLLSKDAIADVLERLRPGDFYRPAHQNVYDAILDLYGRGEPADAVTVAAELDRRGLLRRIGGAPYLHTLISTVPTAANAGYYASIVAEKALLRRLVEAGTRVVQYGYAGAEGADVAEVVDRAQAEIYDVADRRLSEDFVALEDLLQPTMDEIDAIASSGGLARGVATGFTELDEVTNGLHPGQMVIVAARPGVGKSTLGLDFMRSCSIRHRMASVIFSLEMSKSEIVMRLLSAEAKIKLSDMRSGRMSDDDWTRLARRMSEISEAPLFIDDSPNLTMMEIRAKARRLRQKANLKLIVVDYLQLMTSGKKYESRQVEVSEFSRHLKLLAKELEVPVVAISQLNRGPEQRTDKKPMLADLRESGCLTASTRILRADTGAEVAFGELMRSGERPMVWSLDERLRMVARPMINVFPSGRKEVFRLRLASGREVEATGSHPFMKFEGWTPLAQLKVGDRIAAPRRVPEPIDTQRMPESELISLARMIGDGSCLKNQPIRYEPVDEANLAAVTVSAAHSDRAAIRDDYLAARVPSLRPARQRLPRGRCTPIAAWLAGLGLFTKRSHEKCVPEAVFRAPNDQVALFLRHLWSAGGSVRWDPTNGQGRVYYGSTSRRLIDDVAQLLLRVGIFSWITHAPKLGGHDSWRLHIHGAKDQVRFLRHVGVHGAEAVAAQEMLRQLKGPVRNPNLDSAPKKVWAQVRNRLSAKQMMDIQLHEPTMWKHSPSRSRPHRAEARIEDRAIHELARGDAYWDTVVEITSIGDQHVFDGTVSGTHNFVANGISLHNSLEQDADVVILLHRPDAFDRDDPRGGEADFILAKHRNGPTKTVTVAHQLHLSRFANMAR
# Protein RecA = biological target: T7, Protein RecA (Mycobacterium tuberculosis, UniProt P9WHJ3); experiment: Fluorescence Cell-Free Homogeneous Dose Retest to Identify Inhibitors of RecA-Intein Splicing Activity. [Related pubchem assays (depositor defined):AID2097, AID2223, AID489010, AID492950]; type: functional
# T7 sequence (P9WHJ3 whole entry): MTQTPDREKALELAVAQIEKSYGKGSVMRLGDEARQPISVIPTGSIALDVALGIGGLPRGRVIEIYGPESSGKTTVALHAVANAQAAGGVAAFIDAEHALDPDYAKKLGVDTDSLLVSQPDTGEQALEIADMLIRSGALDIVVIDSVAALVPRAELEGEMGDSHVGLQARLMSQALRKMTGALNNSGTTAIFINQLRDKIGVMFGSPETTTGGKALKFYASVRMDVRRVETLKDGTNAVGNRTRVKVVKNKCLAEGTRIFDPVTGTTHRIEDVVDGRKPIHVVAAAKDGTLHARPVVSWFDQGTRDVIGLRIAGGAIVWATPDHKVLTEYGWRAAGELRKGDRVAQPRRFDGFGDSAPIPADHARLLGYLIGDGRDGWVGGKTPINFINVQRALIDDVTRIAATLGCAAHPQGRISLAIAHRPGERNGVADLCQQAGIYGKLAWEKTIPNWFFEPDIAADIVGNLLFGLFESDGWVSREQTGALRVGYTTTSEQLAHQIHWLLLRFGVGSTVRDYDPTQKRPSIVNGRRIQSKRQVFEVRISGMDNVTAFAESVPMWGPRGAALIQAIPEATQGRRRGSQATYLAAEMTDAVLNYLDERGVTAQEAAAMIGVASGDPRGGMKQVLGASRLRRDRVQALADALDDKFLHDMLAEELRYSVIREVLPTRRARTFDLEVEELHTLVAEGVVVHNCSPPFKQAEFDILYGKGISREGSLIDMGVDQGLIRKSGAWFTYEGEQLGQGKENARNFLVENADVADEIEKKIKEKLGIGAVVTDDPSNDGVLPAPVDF
# [22] = cytotoxicity in HEK-293T cells, dose response, cytotoxicity control for BCR NF-kB inhibitor project, luminescence, B-cell screen hits (AID 489021); type: functional, cell-based;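 further: HEK-293T cells carrying an NF-kB luciferase reporter; cells exposed to compound for about 14 hours before viability readout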
# Chain of Neurotensin receptor type 1 (P30989 whole entry): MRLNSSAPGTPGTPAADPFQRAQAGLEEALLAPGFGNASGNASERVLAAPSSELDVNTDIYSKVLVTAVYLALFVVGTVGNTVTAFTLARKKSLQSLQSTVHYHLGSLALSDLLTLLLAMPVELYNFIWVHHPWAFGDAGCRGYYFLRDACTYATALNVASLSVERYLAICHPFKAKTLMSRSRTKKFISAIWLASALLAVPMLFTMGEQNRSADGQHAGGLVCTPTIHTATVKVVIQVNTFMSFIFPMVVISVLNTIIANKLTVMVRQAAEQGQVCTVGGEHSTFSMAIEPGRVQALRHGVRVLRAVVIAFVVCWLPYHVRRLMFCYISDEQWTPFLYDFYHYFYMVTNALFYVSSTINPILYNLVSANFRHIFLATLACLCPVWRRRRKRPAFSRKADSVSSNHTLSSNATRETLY
# Chain of G-protein coupled receptor 55 (Q9Y2T6 whole entry): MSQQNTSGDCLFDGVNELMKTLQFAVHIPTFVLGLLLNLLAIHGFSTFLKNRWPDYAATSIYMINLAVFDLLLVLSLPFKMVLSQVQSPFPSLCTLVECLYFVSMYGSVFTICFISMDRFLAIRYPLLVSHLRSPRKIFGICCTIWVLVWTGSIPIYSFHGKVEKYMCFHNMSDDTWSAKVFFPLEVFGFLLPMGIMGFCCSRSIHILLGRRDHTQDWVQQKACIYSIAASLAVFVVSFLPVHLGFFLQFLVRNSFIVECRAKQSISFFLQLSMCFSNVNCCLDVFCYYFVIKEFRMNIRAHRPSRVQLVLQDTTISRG
# T5 sequence (Q00975 whole entry): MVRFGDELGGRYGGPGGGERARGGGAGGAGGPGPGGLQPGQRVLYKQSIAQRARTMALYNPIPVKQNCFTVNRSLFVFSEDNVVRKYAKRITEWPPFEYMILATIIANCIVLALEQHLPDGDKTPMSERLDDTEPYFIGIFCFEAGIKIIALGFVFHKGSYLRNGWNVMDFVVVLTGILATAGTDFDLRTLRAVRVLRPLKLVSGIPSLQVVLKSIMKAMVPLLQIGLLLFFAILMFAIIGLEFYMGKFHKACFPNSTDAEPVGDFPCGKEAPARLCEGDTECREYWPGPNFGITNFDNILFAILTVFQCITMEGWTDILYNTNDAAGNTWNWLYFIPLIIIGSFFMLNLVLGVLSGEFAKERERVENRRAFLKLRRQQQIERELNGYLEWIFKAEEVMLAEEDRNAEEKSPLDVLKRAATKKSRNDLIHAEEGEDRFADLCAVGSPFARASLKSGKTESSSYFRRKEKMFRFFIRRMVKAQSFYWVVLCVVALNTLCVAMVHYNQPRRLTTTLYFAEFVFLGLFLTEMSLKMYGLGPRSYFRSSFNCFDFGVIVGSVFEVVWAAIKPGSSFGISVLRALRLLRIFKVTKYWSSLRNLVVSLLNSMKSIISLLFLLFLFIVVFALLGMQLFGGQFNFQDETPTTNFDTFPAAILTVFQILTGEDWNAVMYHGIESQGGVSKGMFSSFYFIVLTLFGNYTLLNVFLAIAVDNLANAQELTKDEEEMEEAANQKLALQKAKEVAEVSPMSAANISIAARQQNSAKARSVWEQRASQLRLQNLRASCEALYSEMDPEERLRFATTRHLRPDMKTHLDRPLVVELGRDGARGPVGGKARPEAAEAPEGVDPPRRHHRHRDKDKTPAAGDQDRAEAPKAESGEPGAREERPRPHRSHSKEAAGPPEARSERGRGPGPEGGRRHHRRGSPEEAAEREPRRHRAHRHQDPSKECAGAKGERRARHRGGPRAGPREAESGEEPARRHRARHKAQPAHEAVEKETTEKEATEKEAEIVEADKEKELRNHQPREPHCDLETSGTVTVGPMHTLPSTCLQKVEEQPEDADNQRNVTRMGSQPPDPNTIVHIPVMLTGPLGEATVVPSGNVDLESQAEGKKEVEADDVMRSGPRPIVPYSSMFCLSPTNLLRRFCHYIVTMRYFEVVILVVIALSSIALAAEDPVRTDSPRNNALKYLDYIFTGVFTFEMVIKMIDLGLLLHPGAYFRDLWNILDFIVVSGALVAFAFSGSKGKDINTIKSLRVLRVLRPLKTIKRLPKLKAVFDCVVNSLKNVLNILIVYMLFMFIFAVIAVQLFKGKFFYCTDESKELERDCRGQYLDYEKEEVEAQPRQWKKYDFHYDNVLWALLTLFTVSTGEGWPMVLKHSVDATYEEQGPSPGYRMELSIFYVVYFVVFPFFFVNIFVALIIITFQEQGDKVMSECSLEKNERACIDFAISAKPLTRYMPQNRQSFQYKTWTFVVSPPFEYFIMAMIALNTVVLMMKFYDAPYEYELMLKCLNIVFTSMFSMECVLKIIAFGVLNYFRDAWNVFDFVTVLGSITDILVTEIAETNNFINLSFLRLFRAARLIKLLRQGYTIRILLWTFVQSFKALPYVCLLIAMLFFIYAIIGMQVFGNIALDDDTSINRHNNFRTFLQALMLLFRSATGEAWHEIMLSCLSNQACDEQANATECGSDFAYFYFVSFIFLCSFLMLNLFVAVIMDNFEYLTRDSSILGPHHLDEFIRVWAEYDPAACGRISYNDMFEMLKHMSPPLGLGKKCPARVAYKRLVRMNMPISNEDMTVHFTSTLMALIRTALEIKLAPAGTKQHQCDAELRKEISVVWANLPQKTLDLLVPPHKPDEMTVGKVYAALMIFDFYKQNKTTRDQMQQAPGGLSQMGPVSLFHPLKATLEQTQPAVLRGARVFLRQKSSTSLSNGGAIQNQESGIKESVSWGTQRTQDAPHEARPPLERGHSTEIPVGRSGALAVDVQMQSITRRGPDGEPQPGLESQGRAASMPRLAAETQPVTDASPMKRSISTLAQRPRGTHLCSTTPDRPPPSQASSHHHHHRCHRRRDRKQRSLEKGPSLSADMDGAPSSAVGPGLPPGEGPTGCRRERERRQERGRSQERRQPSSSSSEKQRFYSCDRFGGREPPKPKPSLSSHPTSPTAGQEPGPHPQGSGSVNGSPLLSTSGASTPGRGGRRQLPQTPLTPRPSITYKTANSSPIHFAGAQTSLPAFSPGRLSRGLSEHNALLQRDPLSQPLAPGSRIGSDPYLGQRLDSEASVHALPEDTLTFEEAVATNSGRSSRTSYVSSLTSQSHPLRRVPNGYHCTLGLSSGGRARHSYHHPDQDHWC
# T5 sequence (Q02410 whole entry): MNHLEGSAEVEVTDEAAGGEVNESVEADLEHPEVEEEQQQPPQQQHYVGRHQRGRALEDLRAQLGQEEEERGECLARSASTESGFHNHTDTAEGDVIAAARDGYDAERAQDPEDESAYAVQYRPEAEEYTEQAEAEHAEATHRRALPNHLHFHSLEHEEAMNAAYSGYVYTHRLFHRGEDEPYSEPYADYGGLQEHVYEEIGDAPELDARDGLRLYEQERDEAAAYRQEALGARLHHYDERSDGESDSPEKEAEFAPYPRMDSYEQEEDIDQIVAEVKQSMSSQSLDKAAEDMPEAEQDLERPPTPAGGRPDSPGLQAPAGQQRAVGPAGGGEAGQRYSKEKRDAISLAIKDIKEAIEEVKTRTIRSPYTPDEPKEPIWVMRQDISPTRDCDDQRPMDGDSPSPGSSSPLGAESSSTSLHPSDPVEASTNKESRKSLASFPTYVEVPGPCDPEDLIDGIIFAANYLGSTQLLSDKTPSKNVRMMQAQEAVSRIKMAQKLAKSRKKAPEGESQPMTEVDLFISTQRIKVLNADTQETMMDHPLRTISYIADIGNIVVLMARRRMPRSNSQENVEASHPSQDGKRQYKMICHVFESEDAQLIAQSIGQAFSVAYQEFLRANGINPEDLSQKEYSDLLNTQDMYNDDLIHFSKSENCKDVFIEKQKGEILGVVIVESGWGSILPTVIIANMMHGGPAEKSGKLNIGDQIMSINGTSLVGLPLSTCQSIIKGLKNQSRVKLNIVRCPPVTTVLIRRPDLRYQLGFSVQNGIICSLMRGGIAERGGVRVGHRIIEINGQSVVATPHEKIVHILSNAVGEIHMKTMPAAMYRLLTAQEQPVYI
# Chain of Glyceraldehyde-3-phosphate dehydrogenase (P04406 whole entry): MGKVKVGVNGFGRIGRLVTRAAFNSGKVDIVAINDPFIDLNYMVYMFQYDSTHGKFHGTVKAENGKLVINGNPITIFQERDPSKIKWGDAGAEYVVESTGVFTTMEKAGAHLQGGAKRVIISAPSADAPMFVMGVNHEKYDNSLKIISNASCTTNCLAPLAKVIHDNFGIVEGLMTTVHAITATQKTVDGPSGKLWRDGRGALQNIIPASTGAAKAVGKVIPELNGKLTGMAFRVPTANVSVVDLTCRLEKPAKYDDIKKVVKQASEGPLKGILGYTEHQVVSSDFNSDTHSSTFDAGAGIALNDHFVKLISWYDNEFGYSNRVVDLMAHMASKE
# Chain of Induced myeloid leukemia cell differentiation protein Mcl-1 (Q07820 whole entry): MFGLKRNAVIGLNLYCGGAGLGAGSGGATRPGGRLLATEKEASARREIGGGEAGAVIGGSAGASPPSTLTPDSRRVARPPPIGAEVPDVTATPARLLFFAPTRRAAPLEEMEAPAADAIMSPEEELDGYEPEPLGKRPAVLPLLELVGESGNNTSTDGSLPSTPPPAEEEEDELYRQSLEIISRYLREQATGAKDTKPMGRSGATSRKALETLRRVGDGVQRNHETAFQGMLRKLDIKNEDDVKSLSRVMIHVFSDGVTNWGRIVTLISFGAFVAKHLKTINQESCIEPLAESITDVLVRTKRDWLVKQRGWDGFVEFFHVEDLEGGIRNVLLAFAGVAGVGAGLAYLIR
structure (smiles),measurement,setting,value
CC(=O)Nc1cccc(C(=O)/C=C/c2ccc(Br)cc2)c1,EC50,[1],3.18 µM (active)
same,EC50,[2],13.3 µM (active)
same,EC50,[3],3.77 µM (active)
COC(=O)c1cc(-c2ccc(F)cc2F)[nH]n1,IC50,[4],> 10 µM (inconclusive)
same,IC50,[5],0.192 µM (active)
CCN(c1ccc(N/C=C2/C(=O)N(Cc3ccc(OC)cc3)C(=O)c3ccccc32)cc1)C(C)C,EC50,[6],2.01 µM (active)
CCN(CC)C(=O)CC(c1cc(OC)c(OC)c(OC)c1)c1c(OC)cc(OC)c2c(-c3ccccc3)cc(=O)oc12 (centres undefined),EC50,[6],1.31 µM (active)
same,IC50,[7],5.26 µM (active)
O=C1CSC(=S)N1Cc1cccnc1,IC50,cells,13.2 µM (active)
same,EC50,[8],3.72 µM (active)
same,EC50,BJ [9],21.1 µM (active)
same,CC50,[10],4.93 µM (active)
same,CC50,[11],3.69 µM (active)
same,EC50,BJ [12],> 150 µM (inconclusive)
same,EC50,[13],5.21 µM (active)
same,EC50,BJ [14],5.09 µM (active)
same,EC50,[15],9.9 µM (active)
CC(C)(C)OC(=O)N1CCC(NC(=O)c2[nH]cnc2C(=O)N[C@@H](Cc2ccccc2)C(=O)OCc2ccccc2)CC1,EC50,[2],32.2 µM (inactive)
CCOc1ccc(N(C(=O)c2snc(C(N)=O)c2N)C(C(=O)NCC2CCCO2)c2c[nH]c3ccccc23)cc1 (centres undefined),IC50,[16],5.73 µM (active)
same,IC50,[17],11.1 µM (active)
same,IC50,Bcl-2-related protein A1,> 20 µM (inactive)
CCOC(=O)N1CCN(C(=O)c2ccc3c(c2)N(Cc2cc(C)ccc2C)C(=O)c2ccccc2[S+]3[O-])CC1 (centres undefined),EC50,[6],4.83 µM (active)
CCc1cccc(CC)c1-n1c(SCC(=O)N2CCc3ccccc3C2)nnc1-c1cccnc1,EC50,[2],4.16 µM (active)
Nc1nc(-c2ccco2)nn1C(=O)CCc1ccccc1,IC50,Prothrombin,0.0191 µM (active)
same,IC50,Bcl-2-like protein 10,> 100 µM (inactive)
CCCc1cc(NCCCn2ccnc2)n2nc(C)c(-c3ccccc3)c2n1,IC50,cells,29.1 µM (active)
same,CC50,[11],36.2 µM (active)
same,CC50,[18],> 20 µM (active)
CC1CCN(c2ccc(C(=O)O)cc2N)CC1,IC50,Bcl-2-like protein 10,30.5 µM (active)
CCC(=O)Nc1ccc(Nc2nc(Cl)nc(Nc3ccc(NC(=O)CC)cc3)n2)cc1,IC50,[19],> 50 µM (inactive)
same,IC50,[20],12.8 µM (active)
COC(=O)c1ccc(C(=O)NC2CC(C)(C)Cc3c2cnn3-c2ccc(F)cc2)nc1 (centres undefined),IC50,cells,6.8 µM (active)
same,CC50,[10],12.2 µM (active)
same,CC50,[11],16.8 µM (active)
same,CC50,[18],> 20 µM (active)
COc1ccc(/C=C2/SC(=S)N(CCCC(=O)Nc3cccc(O)c3)C2=O)cc1,AC50,[21],> 380 µM (inactive)
same,EC50,Protein RecA,> 380 µM (inactive)
same,IC50,[22],55.8 µM (inactive)
COc1ccc(OC)c(C2CC(=O)Nc3cc(OC)c(OC)c(OC)c32)c1 (centres undefined),IC50,[22],> 80 µM (inactive)
